Experimental data from patent publication US20160229835A1, “NOVEL PYRIDYLOXYACETYL TETRAHYDROISOQUINOLINE COMPOUNDS USEFUL AS NAMPT INHIBITORS” (ELI LILLY AND COMPANY, priority 2013, published 2016).

Tested on: NAMPT-mediated NAD+ formation in A2780 tumors
Assay: IVTI Assay (NAD+ formation in A2780 tumors)
Format: in vivo
Settings: A2780 xenograft, female nude mice, oral gavage, after 2 doses (7 hours after second dose); ± SE
Method: The purpose of this assay is to measure the ability of a test compound to inhibit the NAMPT-mediated NAD^+ formation in tumors in an animal model. A2780 cells (ATCC) are grown as described above for the NAD^+ assay (Assay for NAD^+/NMN Levels in A2780 Cells). The cells (5×10^6/animal) are mixed with MATRIGEL® (1:1) and implanted subcutaneously into the rear flank of the mice (female nude mice, Harlan). The implanted tumor cells grow as solid tumors. The tumor volume and body weight are measured twice a week with a caliper. After tumor volume reaches approximately 300-500 mm^3, animals are randomized and grouped into positive control (described herein; 5 animals/group) and compound treatment groups (5 animals/group). The compound (formulated in 20% of CAPTISOL® and 25 mM of phosphate buffer, pH 2) and positive control (20% of CAPTISOL® and 25 mM of phosphate buffer, pH 2) are administered by oral gavage. Compound doses are in the range of 0.10 to 25 mg/kg. […] The resulting preparations (0.5 mL each) are filtered (with a 10K cutoff filter) to remove hemoglobin because red color interferes with the absorbance. […] NAD^+ quantitation is carried out using a NAD^+/NADH cycling assay kit (BioVision, cat#337-100-1). […] The percent inhibition of compound treated groups is calculated relative to the minimum inhibition groups. […]

`CC(C)(O)CS(=O)(=O)Nc1ccc2c(c1)CCN(C(=O)COc1cccnc1)C2` [Example 1, 2-Hydroxy-2-methyl-N-[2-[2-(3-pyridyloxy)acetyl]-3,4-dihydro-1H-isoquinolin-6-yl]propane-1-sulfonamide] was tested, and the “TED50 (dose for 50% inhibition of NAD+ formation in tumor)” value was 2.56 ± 0.37 mg/kg.
